In the NIST ThermoML archive (doi:10.1016/j.fluid.2005.05.012):

Assay: xn = mol fraction of the nth substance listed
Details: 101.33 kPa, Liquid

CC(C)CO [2-methyl-1-propanol] + CN1CCNCC1
x1 = 1
Details	mass density [kg/m3]	viscosity [mPa·s]
293.15 K	801.58	3.994
298.15 K	798.09	3.334
303.15 K	794.09	2.794

CN1CCNCC1 [N-methylpiperazine] + CC(C)CO
Details	mass density, 293.15 K [kg/m3]	mass density, 298.15 K [kg/m3]	mass density, 303.15 K [kg/m3]	viscosity, 293.15 K [mPa·s]	viscosity, 298.15 K [mPa·s]	viscosity, 303.15 K [mPa·s]
x2 = 0	903.78	899.8	894.55	2.1	1.841	1.624
x2 = 0.0515	901.11	897.16	891.98	2.237	1.941	1.699
x2 = 0.0983	898.38	894.46	889.35	2.361	2.046	1.781
x2 = 0.1506	895.07	891.19	886.16	2.542	2.198	1.914
x2 = 0.2011	891.66	887.82	882.88	2.728	2.354	2.039
x2 = 0.2971	884.72	880.97	876.18	3.084	2.647	2.288
x2 = 0.402	876.51	872.85	868.24	3.469	2.957	2.541
x2 = 0.4982	868.29	864.71	860.24	3.838	3.249	2.785
x2 = 0.6001	858.58	855.07	850.74	4.142	3.504	2.999
x2 = 0.6995	847.72	844.25	840.04	4.382	3.693	3.151
x2 = 0.7978	835.15	831.71	827.6	4.487	3.789	3.211
x2 = 0.8995	819.74	816.28	812.25	4.423	3.708	3.116

CN1CCNCC1 [N-methylpiperazine] + CC(C)O
Details	mass density, 293.15 K [kg/m3]	mass density, 298.15 K [kg/m3]	mass density, 303.15 K [kg/m3]	viscosity, 293.15 K [mPa·s]	viscosity, 298.15 K [mPa·s]	viscosity, 303.15 K [mPa·s]
x2 = 0	903.78	899.8	894.54	2.1	1.841	1.624
x2 = 0.0998	897.99	893.98	888.87	2.261	1.967	1.733
x2 = 0.1988	891.42	887.39	882.45	2.393	2.072	1.816
x2 = 0.3003	883.75	879.73	874.96	2.502	2.162	1.891
x2 = 0.3998	875.22	871.21	866.62	2.581	2.224	1.938
x2 = 0.5	865.48	861.47	857.07	2.65	2.281	1.984
x2 = 0.5996	854.41	850.38	846.15	2.69	2.312	2.012
x2 = 0.7	841.49	837.39	833.32	2.704	2.329	2.027
x2 = 0.7991	826.48	822.27	818.3	2.678	2.309	2.008
x2 = 0.8503	817.61	813.32	809.39	2.648	2.284	1.986
x2 = 0.9003	808.06	803.69	799.79	2.615	2.25	1.954
x2 = 0.9489	797.8	793.36	789.46	2.541	2.183	1.893

CN1CCNCC1 [N-methylpiperazine] + CCCCO
Details	mass density, 293.15 K [kg/m3]	mass density, 298.15 K [kg/m3]	mass density, 303.15 K [kg/m3]	viscosity, 293.15 K [mPa·s]	viscosity, 298.15 K [mPa·s]	viscosity, 303.15 K [mPa·s]
x2 = 0	903.79	899.8	894.54	2.1	1.841	1.624
x2 = 0.0982	898.89	894.98	889.88	2.247	1.966	1.73
x2 = 0.199	893.13	889.24	884.23	2.431	2.115	1.859
x2 = 0.2966	886.88	883.01	878.11	2.631	2.283	2.002
x2 = 0.3973	879.73	875.91	871.16	2.841	2.461	2.153
x2 = 0.5001	871.61	867.85	863.29	3.018	2.615	2.284
x2 = 0.6004	862.72	859.01	854.62	3.181	2.751	2.392
x2 = 0.6995	852.72	849.01	844.76	3.261	2.832	2.471
x2 = 0.7537	846.6	842.86	838.67	3.272	2.846	2.495
x2 = 0.7936	841.74	837.97	833.81	3.258	2.841	2.486
x2 = 0.8002	840.9	837.13	832.97	3.247	2.833	2.489
x2 = 0.8419	835.38	831.58	827.45	3.218	2.812	2.473
x2 = 0.8997	827	823.16	819.05	3.145	2.756	2.427
